In PubChem BioAssay AID1996:
≈ marks a conversion by molar mass, not a printed value.

Details: buffer; pH 7.4; 200.0 µM

Q: With `O=C1CNC(=S)N1CCOc1ccccc1` as the compound, how does the solubility kinetic read?
A: 30.4 µg/mL (≈ 129 µM)

Q: Which solubility kinetic does the source give for `Cc1ccc(CNCc2ccco2)cc1.O=C(O)C(=O)O` here?
A: > 43.7 µg/mL

Q: With `Cn1c(SCc2cccc(Br)c2)nc2ccccc2c1=O` as the compound, how does the solubility kinetic read?
A: < 0.4 µg/mL

Q: With `O=C(N[C@@H](Cc1ccccc1)C(=O)O)c1cccs1` as the compound, how does the solubility kinetic read?
A: > 41.3 µg/mL

Q: Which solubility kinetic does the source give for `CC(C)c1ccccc1NC(=S)NCc1ccncc1` here?
A: 41.1 µg/mL (≈ 144 µM)

Q: For `CCCNC(=O)CN1C(=O)NC(CC)(c2ccc(F)cc2)C1=O` (stereo not given), which solubility kinetic is on record?
A: > 48.2 µg/mL

Q: Which solubility kinetic does the source give for `COc1ccc(CC(=O)NCc2ccccc2)cc1OC` here?
A: > 42.8 µg/mL

Q: Which solubility kinetic does the source give for `C=CCNC(=S)/N=c1/ccccn1Cc1ccccc1` here?
A: 39.6 µg/mL (≈ 140 µM)

Q: Which solubility kinetic does the source give for `O=C(COc1ccc(F)cc1Br)NCC1COc2ccccc2O1` (stereo not given) here?
A: 17.5 µg/mL (≈ 44.2 µM)

Q: Which solubility kinetic does the source give for `COc1ccc(NC(=O)COC(=O)C23CC4CC(CC(NC(C)=O)(C4)C2)C3)cc1S(=O)(=O)N1CCOCC1` here?
A: > 82.4 µg/mL

Q: For `CC(C)CN(CC(C)C)C(=S)Nc1ccc(Cl)cc1`, which solubility kinetic is on record?
A: 2.2 µg/mL (≈ 7.36 µM)

Q: With `CCOC(=O)c1sc(S(C)(=O)=O)c2c1CCc1conc1-2` as the compound, how does the solubility kinetic read?
A: 4 µg/mL (≈ 12.2 µM)

Q: Which solubility kinetic does the source give for `CN(C)C(CNC(=O)c1cc(S(=O)(=O)N2CCOCC2)ccc1F)c1cccs1` (stereo not given) here?
A: > 66.2 µg/mL

Q: Which solubility kinetic does the source give for `O=C(Cc1ccc(Cl)cc1)NC1CCCCCC1` here?
A: 10.2 µg/mL (≈ 38.4 µM)

Q: Which solubility kinetic does the source give for `Clc1cc(Br)ccc1NCc1cccnc1` here?
A: 24.7 µg/mL (≈ 83 µM)

Q: For `Cc1ccc(NC(=S)Nc2cccc(-c3n[nH]c(=S)o3)c2)cc1`, which solubility kinetic is on record?
A: > 51.4 µg/mL

Q: With `Cc1oc(C)c(S(=O)(=O)NCc2cccs2)c1C(=O)O` as the compound, how does the solubility kinetic read?
A: > 47.3 µg/mL

Q: With `O=[N+]([O-])c1ccc(P(=O)(Cc2ccccc2)c2ccccc2O)cc1` (stereo not given) as the compound, how does the solubility kinetic read?
A: 17 µg/mL (≈ 48.1 µM)

Q: Which solubility kinetic does the source give for `Cc1ccc(NC(=O)N2CCCCCC2)cc1` here?
A: > 34.8 µg/mL

Q: With `COC(=O)c1ccc(N2C(=O)C3CC(C)=C(C)CC3C2=O)cc1` (stereo not given) as the compound, how does the solubility kinetic read?
A: 18.3 µg/mL (≈ 58.4 µM)

Q: For `COc1ccc(C(=O)Nc2ccc3nc(C)sc3c2)cc1OC`, which solubility kinetic is on record?
A: 3 µg/mL (≈ 9.14 µM)

Q: For `Cc1noc(C)c1C(=O)Nc1ccc(C#N)cc1`, which solubility kinetic is on record?
A: > 36.2 µg/mL

Q: With `COc1ccc(C(=O)OCC(=O)NCc2ccc3c(c2)OCO3)cc1S(=O)(=O)N1CCOCC1` as the compound, how does the solubility kinetic read?
A: 12.2 µg/mL (≈ 24.8 µM)

Q: With `O=C(Nc1ccc([N+](=O)[O-])cc1)N1CCc2ccccc2C1` as the compound, how does the solubility kinetic read?
A: 22 µg/mL (≈ 74 µM)

Q: For `COc1ccc(OCC(=O)NCc2ccc(Cl)cc2)cc1`, which solubility kinetic is on record?
A: 3.3 µg/mL (≈ 10.8 µM)

Q: Which solubility kinetic does the source give for `CCCCC(=O)NC(=S)Nc1ccc(NC(=O)C(C)C)c(OC)c1` here?
A: 5.4 µg/mL (≈ 15.4 µM)

Q: Which solubility kinetic does the source give for `Cc1cc(C)cc(NC(=O)CN2C(=O)NC(Cc3c[nH]c4ccccc34)C2=O)c1` (stereo not given) here?
A: 2 µg/mL (≈ 5.12 µM)

Q: Which solubility kinetic does the source give for `Cl.c1ccc(Cc2ccc(OCCN3CCOCC3)cc2)cc1` here?
A: 42.2 µg/mL

Q: For `CN1C(=O)C(=O)N(c2cccc(C(F)(F)F)c2)C1=O`, which solubility kinetic is on record?
A: 39.9 µg/mL (≈ 147 µM)

Q: For `CCOC(=O)C1CCN(C(=O)/C(=C/c2ccccc2)NC(=O)c2ccccc2)CC1`, which solubility kinetic is on record?
A: > 61 µg/mL

Q: With `CNS(=O)(=O)c1cccc(C(=O)NCC2CCCCC2)c1` as the compound, how does the solubility kinetic read?
A: > 46.6 µg/mL

Q: With `CC1(C)CC(NC(=O)c2ccc(Cl)c(Cl)c2)CC(C)(C)N1` as the compound, how does the solubility kinetic read?
A: > 49.4 µg/mL

Q: Which solubility kinetic does the source give for `O=C(O)CSCC(=O)NCc1csc2ccc(Cl)cc12` here?
A: 37.9 µg/mL (≈ 115 µM)

Q: For `Cn1cccc1C(=O)NCC1CCCCC1`, which solubility kinetic is on record?
A: 28 µg/mL (≈ 127 µM)

Q: For `O=C(CN1CCC(NC(=O)C2CC2)CC1)Nc1cccc(F)c1`, which solubility kinetic is on record?
A: > 47.9 µg/mL

Q: For `COc1cc2c(cc1OC)C(CCc1ccccc1)=NCC2`, which solubility kinetic is on record?
A: 42.6 µg/mL (≈ 144 µM)

Q: Which solubility kinetic does the source give for `Cc1ccc(NS(=O)(=O)c2ccc3c(c2)NC(=O)CO3)cc1` here?
A: 10.7 µg/mL (≈ 33.6 µM)

Q: Which solubility kinetic does the source give for `CCc1ccc(NC(=O)c2ccccc2SC)cc1` here?
A: 2.4 µg/mL (≈ 8.84 µM)

Q: Which solubility kinetic does the source give for `Cc1ccc2[nH]c(CNC(=O)C3CCCCC3)cc2c1` here?
A: 19.6 µg/mL (≈ 72.5 µM)

Q: With `O=C(O)Cn1c(=O)c2c3c(sc2n(Cc2ccc(F)cc2)c1=O)CCCC3` as the compound, how does the solubility kinetic read?
A: > 58.3 µg/mL

Q: Which solubility kinetic does the source give for `COc1cc(S(=O)(=O)Nc2cccnc2)ccc1Cl` here?
A: > 44.8 µg/mL

Q: With `CC1CCC(NC(=O)c2ccc3c(c2)OCO3)CC1` (stereo not given) as the compound, how does the solubility kinetic read?
A: 10.4 µg/mL (≈ 39.8 µM)

Q: Which solubility kinetic does the source give for `Cc1cccc(OCC(=O)NCCCNC(=O)c2ccco2)c1` here?
A: 46.8 µg/mL (≈ 148 µM)

Q: Which solubility kinetic does the source give for `Cc1ccc(C(=O)C(C)OC(=O)c2ccc(Cl)nc2)cc1` (stereo not given) here?
A: 34.1 µg/mL (≈ 112 µM)

Q: For `O=C(CCc1ccccc1)Nc1sc2c(c1C(=O)O)CCCC2`, which solubility kinetic is on record?
A: > 49.4 µg/mL

Q: Which solubility kinetic does the source give for `O=C(CSc1ccccc1C(=O)O)Nc1ccc2c(c1)OCO2` here?
A: > 49.7 µg/mL

Q: Which solubility kinetic does the source give for `CCOc1ccc(N2C(=O)NC(=O)/C(=C\c3ccccc3[N+](=O)[O-])C2=O)cc1` here?
A: > 57.2 µg/mL

Q: For `O=C(c1ccc([N+](=O)[O-])cc1)N1CCN(c2cccc3[nH]ccc23)CC1`, which solubility kinetic is on record?
A: 50.7 µg/mL (≈ 145 µM)

Q: Which solubility kinetic does the source give for `S=C(Nc1ccccc1)N(Cc1ccccc1)Cc1ccncc1` here?
A: 39.2 µg/mL (≈ 118 µM)

Q: For `CN1CCN(CCC(=O)Nc2ccc(Br)cc2)CC1`, which solubility kinetic is on record?
A: 48.5 µg/mL (≈ 149 µM)

Q: Which solubility kinetic does the source give for `CCCCc1c(C)nc2c(OC)cccc2c1SCC(=O)O` here?
A: > 47.9 µg/mL

Q: With `O=C(c1cc(COc2ccc(F)cc2F)on1)N1CCSCC1` as the compound, how does the solubility kinetic read?
A: 35.8 µg/mL (≈ 105 µM)

Q: For `CCCCC(=O)N=c1sc2cc([N+](=O)[O-])ccc2n1C`, which solubility kinetic is on record?
A: < 0.2 µg/mL

Q: For `O=C(Cn1cc([N+](=O)[O-])cn1)NC1CCCCCC1`, which solubility kinetic is on record?
A: > 39.9 µg/mL

Q: For `C=CCOc1nc2sc(C)c(C)c2c(=O)n1-c1ccccc1`, which solubility kinetic is on record?
A: 46.1 µg/mL (≈ 148 µM)

Q: With `OCCN1CCN(c2nc(-c3ccccc3O)nc3ccccc23)CC1` as the compound, how does the solubility kinetic read?
A: 37.8 µg/mL (≈ 108 µM)

Q: With `Cc1ccc(C(=O)N2c3ccccc3OCC2C)cc1` (stereo not given) as the compound, how does the solubility kinetic read?
A: 37 µg/mL (≈ 138 µM)

Q: With `Cn1cncc1C(=O)c1ccccc1` as the compound, how does the solubility kinetic read?
A: > 27.9 µg/mL

Q: For `CCOC(=O)Cc1csc(NC(=O)c2ccc(F)cc2)n1`, which solubility kinetic is on record?
A: > 46.2 µg/mL

Q: With `COc1cc(C(=O)N=c2sccn2C)c([N+](=O)[O-])cc1OC` as the compound, how does the solubility kinetic read?
A: 47.2 µg/mL (≈ 146 µM)
